From PubChem BioAssay AID1963979 (Molecular Pharmacology Branch, DTP, NCI, 2024)
Values belong to the compound of their own block, whether it stands above or below them.

Test system: 361931-004-R-J1-PDC multicell spheroid viability
Assay: Anticancer human tumor 361931-004-R-J1-PDC patient-derived colon adenocarcinoma cell line growth inhibition [PI3K]
Details: for IC50: curve of first compound; for viability, T/C: stronger effect = lower value
In short: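 Tumor cells grown as multi-cell spheroids with HUVEC endothelial cells and MSC fibroblast-like stroma were treated with targeted agents combined with inavolisib, alpelisib, duvelisib or copanlisib. Doses fell in half-log steps from near clinical Cmax, else from 10 microM. Viability was measured.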

[1] = second compound 0.00316 µM, first compound 0.0316 µM
[2] = second compound 0.00316 µM, first compound 0.1 µM
[3] = second compound 0.00316 µM, first compound 0.316 µM
[4] = second compound 0.00316 µM, first compound 1 µM
[5] = second compound 0.00316 µM, first compound 3.16 µM
[6] = second compound 0.00316 µM, first compound 10 µM
[7] = second compound 0.01 µM, first compound 0.0316 µM
[8] = second compound 0.01 µM, first compound 0.1 µM
[9] = second compound 0.01 µM, first compound 0.316 µM
[10] = second compound 0.01 µM, first compound 1 µM
[11] = second compound 0.01 µM, first compound 3.16 µM
[12] = second compound 0.01 µM, first compound 10 µM
[13] = second compound 0.0316 µM, first compound 0.0316 µM
[14] = second compound 0.0316 µM, first compound 0.1 µM
[15] = second compound 0.0316 µM, first compound 0.316 µM
[16] = second compound 0.0316 µM, first compound 1 µM
[17] = second compound 0.0316 µM, first compound 3.16 µM
[18] = second compound 0.0316 µM, first compound 10 µM
[19] = second compound 0.1 µM, first compound 0.0316 µM
[20] = second compound 0.1 µM, first compound 0.1 µM
[21] = second compound 0.1 µM, first compound 0.316 µM
[22] = second compound 0.1 µM, first compound 1 µM
[23] = second compound 0.1 µM, first compound 3.16 µM
[24] = second compound 0.1 µM, first compound 10 µM
[25] = second compound 0.316 µM, first compound 0.0316 µM
[26] = second compound 0.316 µM, first compound 0.1 µM
[27] = second compound 0.316 µM, first compound 0.316 µM
[28] = second compound 0.316 µM, first compound 1 µM
[29] = second compound 0.316 µM, first compound 3.16 µM
[30] = second compound 0.316 µM, first compound 10 µM
[31] = second compound 1 µM, first compound 0.0316 µM
[32] = second compound 1 µM, first compound 0.1 µM
[33] = second compound 1 µM, first compound 0.316 µM
[34] = second compound 1 µM, first compound 1 µM
[35] = second compound 1 µM, first compound 3.16 µM
[36] = second compound 1 µM, first compound 10 µM
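Note: spheroids exposed to agents for seven days before readout.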

IC50 (second compound 0.00316 µM): 3300 nM
IC50 (second compound 0.01 µM): 2880 nM
IC50 (second compound 0.0316 µM): 2370 nM
IC50 (second compound 0.1 µM): 1680 nM
IC50 (second compound 0.316 µM): 161 nM
IC50 (second compound 1 µM): < 31.6 nM
SMILES: CC(C)NCC(C(=O)N1CCN(c2ncnc3c2C(C)CC3O)CC1)c1ccc(Cl)cc1 (centres undefined) + COc1c(OCCCN2CCOCC2)ccc2c3n(c(=NC(=O)c4cnc(N)nc4)nc12)CCN3
viability, T/C [1]: 102%
viability, T/C [2]: 97.8%
viability, T/C [3]: 95.2%
viability, T/C [4]: 86.9%
viability, T/C [5]: 50.9%
viability, T/C [6]: 19.5%
viability, T/C [7]: 99%
viability, T/C [8]: 100%
viability, T/C [9]: 90.9%
viability, T/C [10]: 78.7%
viability, T/C [11]: 46.9%
viability, T/C [12]: 26.6%
viability, T/C [13]: 95%
viability, T/C [14]: 89.8%
viability, T/C [15]: 94.2%
viability, T/C [16]: 70.6%
viability, T/C [17]: 43.6%
viability, T/C [18]: 25.7%
viability, T/C [19]: 89.9%
viability, T/C [20]: 76.9%
viability, T/C [21]: 71%
viability, T/C [22]: 60.5%
viability, T/C [23]: 39%
viability, T/C [24]: 21.9%
viability, T/C [25]: 58%
viability, T/C [26]: 52.3%
viability, T/C [27]: 47.4%
viability, T/C [28]: 36.8%
viability, T/C [29]: 34.5%
viability, T/C [30]: 21.3%
viability, T/C [31]: 26%
viability, T/C [32]: 21.8%
viability, T/C [33]: 20.8%
viability, T/C [34]: 20.4%
viability, T/C [35]: 17.6%
viability, T/C [36]: 11.6%

IC50 (second compound 0.00316 µM): 5640 nM
IC50 (second compound 0.01 µM): 5570 nM
IC50 (second compound 0.0316 µM): 4870 nM
IC50 (second compound 0.1 µM): 3490 nM
IC50 (second compound 0.316 µM): 555 nM
IC50 (second compound 1 µM): < 31.6 nM
SMILES: CC1(C)CCC(CN2CCN(c3ccc(C(=O)NS(=O)(=O)c4ccc(NCC5CCOCC5)c([N+](=O)[O-])c4)c(Oc4cnc5[nH]ccc5c4)c3)CC2)=C(c2ccc(Cl)cc2)C1 + COc1c(OCCCN2CCOCC2)ccc2c3n(c(=NC(=O)c4cnc(N)nc4)nc12)CCN3
viability, T/C [1]: 92.3%
viability, T/C [2]: 98.1%
viability, T/C [3]: 108%
viability, T/C [4]: 104%
viability, T/C [5]: 95.4%
viability, T/C [6]: 4.89%
viability, T/C [7]: 106%
viability, T/C [8]: 98.7%
viability, T/C [9]: 104%
viability, T/C [10]: 101%
viability, T/C [11]: 94.6%
viability, T/C [12]: 3.83%
viability, T/C [13]: 96%
viability, T/C [14]: 94.9%
viability, T/C [15]: 96.2%
viability, T/C [16]: 90.4%
viability, T/C [17]: 78.6%
viability, T/C [18]: 3.08%
viability, T/C [19]: 82.5%
viability, T/C [20]: 76.6%
viability, T/C [21]: 76.8%
viability, T/C [22]: 81%
viability, T/C [23]: 54.5%
viability, T/C [24]: 1.89%
viability, T/C [25]: 53%
viability, T/C [26]: 51.6%
viability, T/C [27]: 51.4%
viability, T/C [28]: 48.6%
viability, T/C [29]: 36.4%
viability, T/C [30]: 2.15%
viability, T/C [31]: 25.9%
viability, T/C [32]: 25.6%
viability, T/C [33]: 21.4%
viability, T/C [34]: 25.6%
viability, T/C [35]: 19.8%
viability, T/C [36]: 2.71%
